# Where two headings read alike, the source gives them in different places.
# How the values were obtained:
# [1] = prior studies (Hysek 2012, 2014; Thompson 2007); cited from earlier work
# [2] = racemic MDMA at 125 mg (FIG. 9); cited from earlier work
# [3] = other studies in healthy human subjects; cited from earlier work
# [4] = Emotional Breakthrough Inventory (EBI); format: in vivo, human; conditions: 75-225 mg
# Excerpt: Self-reported breakthrough responses included: facing emotionally difficult feelings that are usually pushed aside; experiencing resolution of a personal conflict or trauma; ability to explore challenging emotions and memories; having an emotional breakthrough; achieving a sense of closure on an emotional problem; achieving emotional release followed by sense of relief.
# [5] = Phase 1 clinical study: safety and tolerability; conditions: healthy volunteers, single oral dose 75-225 mg
# [6] = Multifaceted Empathy Test (MET); format: in vivo, human
# Excerpt: The Multifaceted Empathy Test (MET) measures cognitive empathy (CE), explicit emotional empathy (EEE) and implicit emotional empathy (IEE). Hurlemann R, et al., (2010) Oxytocin enhances amygdala-dependent, socially reinforced learning and emotional empathy in humans. J Neurosci 30:4999-5007.
# [7] = 11-Dimensions-Altered States of Consciousness (11D-ASC); format: in vivo, human
# Excerpt: The results of the 11D-ASC assessment further confirms the unexpected psychedelic-like response associated with R(−)-MDMA.
# [8] = Visual Analog Scale (VAS) subjective experience; format: in vivo, human
# Excerpt: Visual Analogue Scales (VAS) was used to measure subjective experience, including experiences such as Happy, Open, Loving, Close to Others, Sociable, and Lonely. […] Some signal increases were observable for acute increases in the VAS scores of Happy, Open, and Loving experiences, and an acute decrease associated with Lonely (FIG. 2). However, the degree of those signals was far less than previously reported signals for racemic MDMA. These effects for R(−)-MDMA were observable within the acute treatment phase and were dimished (relative to baseline) after 18 hours post-dosing. […] However, R(−)-MDMA did show a consistent pattern in the 225 mg cohort, with highest changes relative to baseline and with similar directionality as the effects reported for racemic MDMA.
# [9] = 5-Dimensions-Altered States of Consciousness (5D-ASC); format: in vivo, human
# Excerpt: This is generally unexpected given the prior results that have been reported for MDMA. One notable finding from the assessment is the ratio of Oceanic Boundlessness (OB) to Dread of Ego Dissolution (DED), which are considered a useful metric. OB is positively correlated with psychedelic-mediated antidepressant efficacy while DED is negatively correlated. […] The OB-DED ratio is consistent with the 11-Dimensional Altered States of Consciousness (11D-ASC, see below).
# [10] = set-up: species or system human; conditions: in vivo
# [11] = Self-Connectedness Scale / Self-Compassion Scale (SCS); format: in vivo, human; conditions: for Self-Connectedness Scale LSMean and 95% CI: change from baseline
# Excerpt: The Self-Compassion Scale (SCS) is a 12-item self-report measure that is used by adults to measure their capacity for self-compassion-the ability to hold one's feelings of suffering with a sense of warmth, connection and concern.
# [12] = Spoken Intensity Rating Scale (SIRS); format: in vivo, human
# [13] = Phase 1 clinical study: pharmacokinetics (plasma); format: in vivo, human
# [14] = Challenging Experiences Questionnaire (CEQ); format: in vivo, human; conditions: 6.5 hours post dosing
# Excerpt: Seven Challenging Experiences Questionnaire (CEQ) factors (grief, fear, death, insanity, isolation, physical distress, and paranoia) provide a phenomenological profile of challenging aspects of experiences with R(−)-MDMA.
# [15] = Neuroendocrine effects (hormone concentrations); format: in vivo, human
# [16] = Depression Anxiety Stress Scale (DASS); format: in vivo, human; conditions: for DASS Anxiety Difference with Placebo and 95% CI / DASS Depression Difference with Placebo and 95% CI / DASS Stress Difference with Placebo and 95% CI / DASS Anxiety LSMean and 95% CI / DASS Depression LSMean and 95% CI / DASS Stress LSMean and 95% CI: Day 8; for DASS Anxiety LSMean and 95% CI / DASS Depression LSMean and 95% CI / DASS Stress LSMean and 95% CI: change from baseline
# Excerpt: The Depression Anxiety Stress Scale (DASS) is a 42-item self-report instrument for measuring depression, anxiety and tension/stress.
# [17] = 75-225 mg, statistical significance at higher doses
# [18] = any cohort compared with the placebo group
smiles,measurement,setting,value
"CNC(C)Cc1ccc2c(c1)OCO2 (racemic) [racemic MDMA, 3,4-methylenedioxymethamphetamine]",oxytocin release,[1],5-6 x
same,11D-ASC response profile,[2],no visual hallucinations and little to no insightfulness
same,"VAS Happy, Open, Loving, Close to Others, and Sociable",[3],acute and substantial increases
CN[C@H](C)Cc1ccc2c(c1)OCO2 [R(−)-MDMA],EBI observations,[4],clear dose-dependent response with statistical significance at higher doses
same,Peak body temperatures,[5],fell within the normal range
same,Treatment-related adverse events: headache,[5],16.7%
same,Treatment-related adverse events: nausea,[5],29.2%
same,serious or severe AEs,[5],no serious or severe AEs
same,study discontinuations,[5],no study discontinuations
same,tolerability,[5],well-tolerated
same,blood pressure and heart rate,[5]; limited dose dependency,Non-clinically significant increases
same,"MET scores: CE positive, EEE all and EEE negative emotions",[6]; all cohorts,showed no changes from baseline compared to placebo in all cohorts
same,"MET LSmean scores: CE all, CE negative, EEE positive, IEE all, IEE positive, IEE negative emotions",[6]; near 3.5 hours,showed changes from baseline in a dose-dependent manner
same,11D-ASC response profile,"[7]; 175 mg and 225 mg, compared with psilocybin","many similarities to that of psilocybin, with slightly less imagery and slightly more insightfulness"
same,11D-ASC subcomponents and total score,[7]; [17],dose-dependent increase in all measured subcomponents
same,VAS scores for Close to Others and Sociable,[8]; all cohorts,showed no changes from baseline compared to placebo in all cohorts
same,"VAS scores for Happy, Open, Loving, and Lonely",[8]; compared to placebo control,showed changes from baseline (prior to treatment) in a dose-dependent manner
same,ratio of Oceanic Boundlessness (OB) to Dread of Ego Dissolution (DED),[9]; 175 mg cohort,very favorable ratio
same,5D-ASC subcomponents and total score,[9]; [17],dose-dependent increase in all measured subcomponents
same,FERT mean happiness reaction time,[10],reduction in the mean happiness reaction time
same,FERT median reaction time,[10],greater reduction in the median reaction time
same,Self-Connectedness Scale Difference with Placebo and 95% CI,"[11]; Day 2, 75 mg oral",0.14
same,Self-Connectedness Scale Difference with Placebo and 95% CI,"[11]; Day 2, 125 mg oral",0.33
same,Self-Connectedness Scale Difference with Placebo and 95% CI,"[11]; Day 2, 175 mg oral",0.42
same,Self-Connectedness Scale Difference with Placebo and 95% CI,"[11]; Day 2, 225 mg oral",0.26
same,SCS changes from baseline,[11]; Day 2 and Day 8,clear dose-dependent response with statistical significance at Day 8
same,Self-Connectedness Scale Difference with Placebo and 95% CI,"[11]; Day 8, 75 mg oral",0.37
same,Self-Connectedness Scale Difference with Placebo and 95% CI,"[11]; Day 8, 125 mg oral",0.40
same,Self-Connectedness Scale Difference with Placebo and 95% CI,"[11]; Day 8, 175 mg oral",0.41
same,Self-Connectedness Scale Difference with Placebo and 95% CI,"[11]; Day 8, 225 mg oral",0.52
same,Self-Connectedness Scale LSMean and 95% CI,"[11]; Day 2, 75 mg oral",0.04
same,Self-Connectedness Scale LSMean and 95% CI,"[11]; Day 2, 125 mg oral",0.23
same,Self-Connectedness Scale LSMean and 95% CI,"[11]; Day 2, 175 mg oral",0.32
same,Self-Connectedness Scale LSMean and 95% CI,"[11]; Day 2, 225 mg oral",0.16
same,Self-Connectedness Scale LSMean and 95% CI,"[11]; Day 8, 75 mg oral",0.08
same,Self-Connectedness Scale LSMean and 95% CI,"[11]; Day 8, 125 mg oral",0.12
same,Self-Connectedness Scale LSMean and 95% CI,"[11]; Day 8, 175 mg oral",0.12
same,Self-Connectedness Scale LSMean and 95% CI,"[11]; Day 8, 225 mg oral",0.24
same,SIRS dose response,[12]; 75-225 mg oral,very strong dose response
same,time of peak SIRS relative to plasma PK Tmax,[12]; each dose,much earlier than the plasma PK Tmax at each dose
same,systemic exposure (Cmax/AUC) to the active metabolite R(−)-MDA,"[13]; after R(−)-MDMA dosing, at higher doses",increased with doses in a slightly less than dose-dependent manner
same,PK food effects,[13]; fasted cohorts versus one fed arm,No patterns in the data suggested any substantial PK food effects
same,AUC0-24h compared to prior reports for total MDMA following racemic-MDMA dosing,[13]; plasma,substantially higher
same,Systemic exposure (Cmax and AUC),"[13]; plasma, 75-225 mg oral",increase with increasing doses in a generally dose-dependent manner
same,"pharmacokinetics, dose dependence","[13]; plasma, 75-225 mg oral",dose-dependent pharmacokinetics
same,CEQ changes from baseline,[14],clear dose-dependent response with statistical significance at higher doses
same,concentration of mature brain-derived neurotrophic factor,[15]; [18],no obvious change from baseline
same,concentration of oxytocin,[15]; [18],no obvious change from baseline
same,concentration of prolactin,[15]; compared with the placebo group,consistent increase
same,DASS anxiety,"[16]; Day 8, compared to placebo",lowered anxiety at lower doses but increased anxiety at 225 mg compared to placebo
same,DASS Anxiety Difference with Placebo and 95% CI,[16]; 75 mg oral,−1.04
same,DASS Depression Difference with Placebo and 95% CI,[16]; 75 mg oral,−0.15
same,DASS Stress Difference with Placebo and 95% CI,[16]; 75 mg oral,−0.93
same,DASS Anxiety Difference with Placebo and 95% CI,[16]; 125 mg oral,−1.07
same,DASS Depression Difference with Placebo and 95% CI,[16]; 125 mg oral,−0.26
same,DASS Stress Difference with Placebo and 95% CI,[16]; 125 mg oral,−0.91
same,DASS Anxiety Difference with Placebo and 95% CI,[16]; 175 mg oral,−1.08
same,DASS Depression Difference with Placebo and 95% CI,[16]; 175 mg oral,−0.03
same,DASS Stress Difference with Placebo and 95% CI,[16]; 175 mg oral,1.11
same,DASS Anxiety Difference with Placebo and 95% CI,[16]; 225 mg oral,0.94
same,DASS Depression Difference with Placebo and 95% CI,[16]; 225 mg oral,1.29
same,DASS Stress Difference with Placebo and 95% CI,[16]; 225 mg oral,1.68
same,DASS Anxiety LSMean and 95% CI,[16]; 75 mg oral,−1.22
same,DASS Depression LSMean and 95% CI,[16]; 75 mg oral,−1.03
same,DASS Stress LSMean and 95% CI,[16]; 75 mg oral,−2.57
same,DASS Anxiety LSMean and 95% CI,[16]; 125 mg oral,−1.24
same,DASS Depression LSMean and 95% CI,[16]; 125 mg oral,−1.14
same,DASS Stress LSMean and 95% CI,[16]; 125 mg oral,−2.54
same,DASS Anxiety LSMean and 95% CI,[16]; 175 mg oral,−1.26
same,DASS Depression LSMean and 95% CI,[16]; 175 mg oral,−0.91
same,DASS Stress LSMean and 95% CI,[16]; 175 mg oral,−0.52
same,DASS Anxiety LSMean and 95% CI,[16]; 225 mg oral,0.76
same,DASS Depression LSMean and 95% CI,[16]; 225 mg oral,0.41
same,DASS Stress LSMean and 95% CI,[16]; 225 mg oral,0.05

# — US20240408054A1, “COMPOSITIONS AND METHODS FOR […] OF R(-)-MDA” (priority 2023, published 2024)
